Results from PubChem BioAssay (NCI).
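A five-concentration, 48-hour dose response in 96-well plates underlies each endpoint, interpolated linearly between surrounding concentrations. TGI: total growth inhibition.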

How the values were obtained:
Test in all cases: DTP human tumour cell line panel, 48 h
[1] = system: HOP-92 NSCLC
[2] = system: UO-31 renal
[3] = system: NCI-H226 lung
[4] = system: SN12C renal
[5] = system: IGROV1 ovarian
[6] = system: LOX IMVI melanoma
[7] = system: SR leukemia
[8] = system: NCI-H460 lung
[9] = system: MALME-3M melanoma
[10] = system: SK-MEL-2 melanoma
[11] = system: NCI-H522 lung
[12] = system: DU-145 prostate
[13] = system: HOP-62 NSCLC
[14] = system: CCRF-CEM leukemia
[15] = system: RXF 393 renal
[16] = system: UACC-62 melanoma
[17] = system: HT29 colon
[18] = system: SK-OV-3 ovarian
[19] = system: T-47D breast
[20] = system: M14 melanoma
[21] = system: SNB-19 CNS
[22] = system: MOLT-4 leukemia
[23] = system: EKVX NSCLC
[24] = system: SNB-75 CNS
[25] = system: U251 CNS
[26] = system: SK-MEL-5 melanoma
[27] = system: TK-10 renal
[28] = system: KM12 colon
[29] = system: SW-620 colon
[30] = system: NCI-H23 lung
[31] = system: ACHN renal
[32] = system: K-562 leukemia
[33] = system: PC-3 prostate
[34] = system: HCC-2998 colon
[35] = system: A549 NSCLC
[36] = system: MCF7 breast
[37] = system: HL-60(TB) leukemia
[38] = system: MDA-MB-231 breast
[39] = system: OVCAR-8 ovarian
[40] = system: HCT-15 colon
[41] = system: COLO 205 colon
[42] = system: SF-539 CNS
[43] = system: MDA-N
[44] = system: CAKI-1 renal
[45] = system: HCT-116 colon
[46] = system: SK-MEL-28 melanoma
[47] = system: A498 renal
[48] = system: 786-0 renal
[49] = system: OVCAR-4 ovarian
[50] = system: SF-295 CNS
[51] = system: MDA-MB-435
[52] = system: SF-268 CNS
[53] = system: UACC-257 melanoma
[54] = system: OVCAR-3 ovarian
[55] = system: RPMI-8226 leukemia
[56] = system: NCI/ADR-RES ovarian
[57] = system: HS 578T breast
[58] = system: OVCAR-5 ovarian
[59] = system: BT-549 breast

`C/C(CC(O)(C(F)(F)F)C(F)(F)F)=N\NC(N)=S` gave a TGI [1] of over 10 µM, a TGI [2] of over 10 µM and a TGI [3] of over 10 µM. For the same molecule, the TGI [4] was over 10 µM, the TGI [5] was over 10 µM and the TGI [6] was over 10 µM. The TGI [7] was over 10 µM, the TGI [8] was over 10 µM and the TGI [9] was over 10 µM. For the same molecule, the TGI [10] was over 10 µM, the TGI [11] was over 10 µM and the TGI [12] was over 10 µM. The TGI [13] was over 10 µM, the TGI [14] was over 10 µM and the TGI [15] was over 10 µM. The TGI [16] was over 10 µM, the TGI [17] was over 10 µM and the TGI [18] was over 10 µM. The TGI [19] was over 10 µM, the TGI [20] was over 10 µM and the TGI [21] was over 10 µM. For the same molecule, the TGI [22] was over 10 µM, the TGI [23] was over 10 µM and the TGI [24] was over 10 µM. For the same molecule, the TGI [25] was over 10 µM, the TGI [26] was over 10 µM and the TGI [27] was over 10 µM. For the same molecule, the TGI [28] was over 10 µM, the TGI [29] was over 10 µM and the TGI [30] was over 10 µM. It also gave a TGI [31] of over 10 µM, a TGI [32] of over 10 µM and a TGI [33] of over 10 µM. It also gave a TGI [34] of over 10 µM, a TGI [35] of over 10 µM and a TGI [36] of over 10 µM. It also gave a TGI [37] of over 10 µM, a TGI [38] of over 10 µM and a TGI [39] of over 10 µM. It also gave a TGI [40] of over 10 µM, a TGI [41] of over 10 µM and a TGI [42] of over 10 µM. For the same molecule, the TGI [43] was over 10 µM, the TGI [44] was over 10 µM and the TGI [45] was over 10 µM. It also gave a TGI [46] of over 10 µM, a TGI [47] of over 10 µM and a TGI [48] of over 10 µM. For the same molecule, the TGI [49] was over 10 µM, the TGI [50] was over 10 µM and the TGI [51] was over 10 µM. It also gave a TGI [52] of over 10 µM, a TGI [53] of over 10 µM and a TGI [54] of over 10 µM. It also gave a TGI [55] of over 10 µM, a TGI [56] of over 10 µM and a TGI [57] of over 10 µM.
With `Cc1cc2c3c(nc2c2cc[nH]c(C)c12)CCCC3` the TGI [1] was 7.3 µM, the TGI [2] was 6.91 µM and the TGI [3] was 29.6 µM. For the same molecule, the TGI [4] was 3.39 µM, the TGI [5] was 5.4 µM and the TGI [6] was 4.69 µM. It also gave a TGI [7] of 4.29 µM, a TGI [8] of 4.27 µM and a TGI [9] of 2.74 µM. The TGI [10] was 3.2 µM, the TGI [12] was 11.1 µM and the TGI [13] was 3.62 µM. For the same molecule, the TGI [14] was 6.48 µM, the TGI [16] was 3.32 µM and the TGI [17] was 6.25 µM. It also gave a TGI [18] of 3.7 µM, a TGI [19] of 4.53 µM and a TGI [20] of 3.63 µM. It also gave a TGI [22] of 4.32 µM, a TGI [23] of 8.44 µM and a TGI [24] of 4.02 µM. It also gave a TGI [25] of 3.83 µM, a TGI [26] of 2.89 µM and a TGI [27] of 4.64 µM. It also gave a TGI [28] of 7.13 µM, a TGI [29] of 3.79 µM and a TGI [30] of 10.4 µM. It also gave a TGI [31] of 15 µM, a TGI [32] of 5.65 µM and a TGI [33] of 16.6 µM. The TGI [34] was 3.43 µM, the TGI [35] was 4.53 µM and the TGI [36] was 3.02 µM. For the same molecule, the TGI [37] was 3.76 µM, the TGI [38] was 3.17 µM and the TGI [39] was 4.96 µM. For the same molecule, the TGI [40] was 3.54 µM, the TGI [41] was 3.37 µM and the TGI [42] was 3.72 µM. It also gave a TGI [43] of 3.32 µM, a TGI [45] of 3.35 µM and a TGI [46] of 3.57 µM. The TGI [48] was 3.04 µM, the TGI [49] was 6.45 µM and the TGI [58] was 13.6 µM. For the same molecule, the TGI [50] was 3.93 µM, the TGI [51] was 3.63 µM and the TGI [52] was 14 µM. The TGI [53] was 3.66 µM, the TGI [54] was 5.07 µM and the TGI [55] was 4.56 µM. The TGI [56] was 19.5 µM and the TGI [57] was 4.41 µM.
`CN(CCO)CCC1COc2ccccc2O1` (stereo unspecified) showed a TGI [2] of over 10 µM, a TGI [3] of over 10 µM and a TGI [4] of over 10 µM. It also gave a TGI [5] of over 10 µM, a TGI [6] of over 10 µM and a TGI [7] of over 10 µM. It also gave a TGI [8] of over 10 µM, a TGI [9] of over 10 µM and a TGI [10] of over 10 µM. The TGI [11] was over 10 µM, the TGI [12] was over 10 µM and the TGI [13] was over 10 µM. The TGI [14] was over 10 µM, the TGI [15] was over 10 µM and the TGI [16] was over 10 µM. It also gave a TGI [17] of over 10 µM, a TGI [18] of over 10 µM and a TGI [19] of over 10 µM. It also gave a TGI [20] of over 10 µM, a TGI [21] of over 10 µM and a TGI [22] of over 10 µM. It also gave a TGI [23] of over 10 µM, a TGI [24] of over 10 µM and a TGI [25] of over 10 µM. For the same molecule, the TGI [26] was over 10 µM, the TGI [27] was over 10 µM and the TGI [28] was over 10 µM. For the same molecule, the TGI [29] was over 10 µM, the TGI [30] was over 10 µM and the TGI [31] was over 10 µM. The TGI [32] was over 10 µM, the TGI [33] was over 10 µM and the TGI [34] was over 10 µM. The TGI [35] was over 10 µM, the TGI [36] was over 10 µM and the TGI [37] was over 10 µM. For the same molecule, the TGI [38] was over 10 µM, the TGI [39] was over 10 µM and the TGI [40] was over 10 µM. It also gave a TGI [41] of over 10 µM, a TGI [42] of over 10 µM and a TGI [43] of over 10 µM. The TGI [44] was over 10 µM, the TGI [45] was over 10 µM and the TGI [46] was over 10 µM. The TGI [47] was over 10 µM, the TGI [49] was over 10 µM and the TGI [58] was over 10 µM. For the same molecule, the TGI [50] was over 10 µM, the TGI [51] was over 10 µM and the TGI [52] was over 10 µM. It also gave a TGI [54] of over 10 µM, a TGI [55] of over 10 µM and a TGI [56] of over 10 µM. It also gave a TGI [57] of over 10 µM.
`CC[C@@]1(O)C(=O)OCc2c1cc1n(c2=O)Cc2c-1nc1ccccc1c2/C=N\NC(=O)C(N)Cc1ccc(O)cc1` (stereo partly specified) was tested, and the TGI [1] was 5.64 µM, the TGI [2] was 8.76 µM and the TGI [3] was 2.64 µM. The TGI [4] was 7.75 µM, the TGI [6] was 2.77 µM and the TGI [7] was 0.396 µM. It also gave a TGI [8] of 10.8 µM, a TGI [9] of 7.8 µM and a TGI [11] of 5.21 µM. For the same molecule, the TGI [14] was 1.15 µM, the TGI [15] was 4.38 µM and the TGI [16] was 1.71 µM. For the same molecule, the TGI [18] was 9.77 µM, the TGI [19] was over 25.7 µM and the TGI [21] was over 31.6 µM. The TGI [22] was 1.59 µM, the TGI [25] was 5.04 µM and the TGI [26] was 2.7 µM. For the same molecule, the TGI [27] was over 31.6 µM, the TGI [30] was 1.82 µM and the TGI [31] was 2.75 µM. It also gave a TGI [32] of over 100 µM, a TGI [59] of over 31.6 µM and a TGI [37] of 4.69 µM. For the same molecule, the TGI [38] was over 31.6 µM, the TGI [40] was over 31.6 µM and the TGI [41] was over 31.6 µM. The TGI [42] was 0.217 µM, the TGI [43] was over 31.6 µM and the TGI [45] was 4.44 µM. It also gave a TGI [47] of 3.65 µM, a TGI [48] of 6.55 µM and a TGI [49] of over 31.6 µM. For the same molecule, the TGI [50] was 3.16 µM, the TGI [53] was 18.9 µM and the TGI [55] was 5.62 µM.
